Results on six molecules are retold here after article PMC8880564, “Design, Synthesis, and Biological Evaluation of a Novel VEGFR-2 Inhibitor Based on a 1,2,5-Oxadiazole-2-Oxide Scaffold with MAPK Signaling Pathway Inhibition” (Pharmaceuticals, 2022).

Assay in all cases: NCI-60 one-dose SRB screening
Holding throughout (assay type): cell-based

For one assay, the system named is A498. To be noted: Homo sapiens, A498, Renal Cancer, 10 µM one dose, 48 h, read-out: growth percentage.
The next assay has as its system ACHN. To be noted: Homo sapiens, Renal Cancer, 10 µM one dose, 48 h, read-out: growth percentage.
The test system of a further assay is CAKI-1. The following applies: Homo sapiens, CAKI-1, Renal Cancer, 10 µM one dose, 48 h, read-out: growth percentage.
Another assay has as its system COLO 205. The following applies: Homo sapiens, COLO 205, Colon Cancer, 10 µM one dose, 48 h, read-out: growth percentage.
A further assay deals with EKVX. To be noted: Homo sapiens, Non-Small Cell Lung Cancer, 10 µM one dose, 48 h, read-out: growth percentage.
In a further assay the test system is HOP-92. To be noted: Homo sapiens, HOP-92, Non-Small Cell Lung Cancer, 10 µM one dose, 48 h, read-out: growth percentage.
The next assay has as its system IGROV1. To be noted: Homo sapiens, IGROV-1, IGROV1, Ovarian Cancer, 10 µM one dose, 48 h, read-out: growth percentage.
A further assay has as its system K-562. The following applies: Homo sapiens, K562, K-562, Leukemia, 10 µM one dose, 48 h, read-out: growth percentage.
A further assay concerns LOX IMVI. The following applies: Homo sapiens, Melanoma, 10 µM one dose, 48 h, read-out: growth percentage.
A further assay deals with MCF7. The following applies: Homo sapiens, MCF7, Breast Cancer, 10 µM one dose, 48 h, read-out: growth percentage.
Another assay has as its system MDA-MB-468. The following applies: Homo sapiens, MDA-MB-468, Breast Cancer, 10 µM one dose, 48 h, read-out: growth percentage.
In another assay the test system is NCI-H23. To be noted: Homo sapiens, NCI-H23, Non-Small Cell Lung Cancer, 10 µM one dose, 48 h, read-out: growth percentage.
In a further assay the test system is NCI-H460. To be noted: Homo sapiens, NCI-H460, Non-Small Cell Lung Cancer, 10 µM one dose, 48 h, read-out: growth percentage.
The test system of a further assay is NCI-H522. The following applies: Homo sapiens, NCI-H522, Non-Small Cell Lung Cancer, 10 µM one dose, 48 h, read-out: growth percentage.
The test system of another assay is NCI/ADR-RES. To be noted: Homo sapiens, Ovarian Cancer, 10 µM one dose, 48 h, read-out: growth percentage.
Another assay has as its system OVCAR-3. The following applies: Homo sapiens, OVCAR-3, Ovarian Cancer, 10 µM one dose, 48 h, read-out: growth percentage.
A further assay relates to RXF 393. The following applies: Homo sapiens, RXF 393, Renal Cancer, 10 µM one dose, 48 h, read-out: growth percentage.
A further assay has as its system SK-MEL-5. To be noted: Homo sapiens, SK-MEL-5, Melanoma, 10 µM one dose, 48 h, read-out: growth percentage.
Another assay has as its system T-47D. To be noted: Homo sapiens, T47D, Breast Cancer, 10 µM one dose, 48 h, read-out: growth percentage.
The test system of the next assay is TK-10. To be noted: Homo sapiens, TK-10, Renal Cancer, 10 µM one dose, 48 h, read-out: growth percentage.
A further assay relates to UACC-257. The following applies: Homo sapiens, UACC-257, Melanoma, 10 µM one dose, 48 h, read-out: growth percentage.
A further assay relates to UACC-62. To be noted: Homo sapiens, UACC-62, Melanoma, 10 µM one dose, 48 h, read-out: growth percentage.

Regarding `O=c1[nH]c(CCl)nc2c1cnn2-c1ccccc1` [13a], the activity at 10 µM with A498 was found to be 77.9%; in the assay with ACHN, 96.7%; in the assay on CAKI-1, 97.6%; with COLO 205, 114%; with EKVX, 100%; with HOP-92, 101%. Besides, the activity at 10 µM in the assay on IGROV1 turned out to be 96.2%; in the assay on K-562 it was 87.5%; in the assay with LOX IMVI it was 103%; in the assay on MCF7, 79.5%; in the assay with MDA-MB-468, 96.6%; with NCI-H23 it was 101%. Besides, the activity at 10 µM was 101% in the assay on NCI-H460; 103% in the assay on NCI-H522; 104% in the assay on NCI/ADR-RES; 95.9% with OVCAR-3; 94.1% in the assay with RXF 393; 107% with SK-MEL-5. The activity at 10 µM in the assay with T-47D came to 95.2%; with TK-10, 154%; in the assay with UACC-257, 99%; with UACC-62 it was 96.2%.
With `Cc1nn(-c2ccccc2)c2nc(CCl)[nH]c(=O)c12` [13b], the activity at 10 µM was found to be 4.55% in the assay on A498; 90.2% with ACHN; 99.6% in the assay with CAKI-1; 110% in the assay on COLO 205; 99.2% with EKVX; 117% in the assay with HOP-92. In addition, the activity at 10 µM in the assay with IGROV1 was 96.2%; in the assay with K-562, 19.2%; in the assay with LOX IMVI it was 101%; with MCF7 it was 16.4%; in the assay on MDA-MB-468 it was 26.6%; with NCI-H23, 98.8%. Also, the activity at 10 µM came to 102% in the assay on NCI-H460; 89.8% with NCI-H522; 102% with NCI/ADR-RES; 97.4% in the assay with OVCAR-3; 99.2% in the assay on RXF 393; 110% with SK-MEL-5. Also, the activity at 10 µM in the assay on T-47D stood at 66%; in the assay with TK-10, 63.2%; with UACC-257 it was 98.8%; with UACC-62, 97.9%.
As for `Cc1nn(-c2ccc(Br)cc2)c2nc(CCl)[nH]c(=O)c12` [13c], the activity at 10 µM is -88.8% with A498; 94.8% in the assay with ACHN; 96.3% in the assay on CAKI-1; 103% in the assay on COLO 205; 99.5% in the assay on EKVX; 101% with HOP-92. Also, the activity at 10 µM was 95.1% with IGROV1; 75.6% in the assay on K-562; 98.5% in the assay with LOX IMVI; 82.3% with MCF7; 94% in the assay with MDA-MB-468; 103% in the assay with NCI-H23. The activity at 10 µM in the assay with NCI-H460 was determined as 109%; with NCI-H522, 85.5%; in the assay with NCI/ADR-RES, 102%; with OVCAR-3, 97.4%; with RXF 393, 119%; in the assay with SK-MEL-5, 103%. In addition, the activity at 10 µM amounted to 91.5% in the assay on T-47D, 111% in the assay with TK-10, 102% in the assay with UACC-257 and 101% in the assay with UACC-62.
Regarding `O=c1[nH]c(CNc2ccc(NCc3c(-c4ccccc4)no[n+]3[O-])cc2)nc2c1cnn2-c1ccccc1` [14a, 3-(((4-(((4-oxo-1-phenyl-4,5-dihydro-1H-pyrazolo[3,4-d]pyrimidin-6-yl)methyl)amino)phenyl)amino)methyl)-4-phenyl-1,2,5-oxadiazole 2-oxide], the activity at 10 µM is 86% with A498; 70.4% in the assay on ACHN; 55.1% with CAKI-1; 101% with COLO 205; 51.3% with EKVX; 85.4% with HOP-92. Moreover, the activity at 10 µM with IGROV1 came to 52.5%; in the assay on K-562 it was 49.8%; with LOX IMVI, 85.5%; in the assay on MCF7 it was 50%; in the assay on MDA-MB-468, 33.2%; in the assay with NCI-H23 it was 63.4%. Also, the activity at 10 µM with NCI-H460 was found to be 64.2%; with NCI-H522, 60.8%; with NCI/ADR-RES, 79.4%; with OVCAR-3, 73.5%; with RXF 393 it was 98.4%; in the assay with SK-MEL-5, 85.3%. Moreover, the activity at 10 µM in the assay on T-47D is 42.5%; in the assay on TK-10, 102%; in the assay on UACC-257, 39%; with UACC-62 it was 60.6%.
On to `Cc1nn(-c2ccccc2)c2nc(CNc3ccc(NCc4c(-c5ccccc5)no[n+]4[O-])cc3)[nH]c(=O)c12` [14b, 3-(((4-(((3-methyl-4-oxo-1-phenyl-4,5-dihydro-1H-pyrazolo[3,4-d]pyrimidin-6-yl)methyl)amino)phenyl)amino)methyl)-4-phenyl-1,2,5-oxadiazole 2-oxide], for which the activity at 10 µM came to 97.9% in the assay with A498; 88.8% with ACHN; 67.1% in the assay on CAKI-1; 116% with COLO 205; 83% in the assay with EKVX; 93.2% in the assay with HOP-92. Further, the activity at 10 µM in the assay on IGROV1 is 64.4%; with K-562 it was 75.8%; with LOX IMVI, 97.6%; in the assay on MCF7, 77%; with MDA-MB-468, 66.9%; with NCI-H23, 86.6%. Also, the activity at 10 µM in the assay with NCI-H460 came out at 90%; in the assay with NCI-H522, 80.9%; in the assay with NCI/ADR-RES, 92.4%; in the assay on OVCAR-3, 87.6%; in the assay on RXF 393, 108%; in the assay on SK-MEL-5, 108%. In addition, the activity at 10 µM with T-47D was 75.5%; in the assay on TK-10, 137%; in the assay on UACC-257 it was 90.1%; in the assay with UACC-62, 98.5%.
As for `Cc1nn(-c2ccc(Br)cc2)c2nc(CNc3ccc(NCc4c(-c5ccccc5)no[n+]4[O-])cc3)[nH]c(=O)c12` [14c, 3-(((4-(((1-(4-bromophenyl)-3-methyl-4-oxo-4,5-dihydro-1H-pyrazolo[3,4-d]pyrimidin-6-yl)methyl)amino)phenyl)amino)methyl)-4-phenyl-1,2,5-oxadiazole 2-oxide], the activity at 10 µM in the assay on A498 turned out to be 104%; with ACHN, 96.9%; in the assay with CAKI-1, 90.2%; in the assay with COLO 205, 115%; in the assay with EKVX, 98.9%; in the assay with HOP-92 it was 108%. Further, the activity at 10 µM in the assay with IGROV1 is 85.6%; with K-562, 111%; with LOX IMVI it was 102%; in the assay with MCF7, 88.1%; in the assay with MDA-MB-468 it was 94.4%; in the assay with NCI-H23 it was 103%. Also, the activity at 10 µM turned out to be 107% in the assay on NCI-H460; 90.8% in the assay with NCI-H522; 101% in the assay with NCI/ADR-RES; 93.9% in the assay with OVCAR-3; 117% in the assay with RXF 393; 104% in the assay with SK-MEL-5. For the same molecule, the activity at 10 µM in the assay on T-47D was found to be 103%; in the assay on TK-10 it was 132%; in the assay with UACC-257, 101%; in the assay with UACC-62 it was 105%.
